The values that follow come from PubChem BioAssay (NCI).

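Results reflect a 48-hour exposure of cells in 96-well plates to compound at five concentrations. TGI denotes the concentration required for complete inhibition of growth.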

The first experiment has as its system OVCAR-5 ovarian. Kind of experiment: NCI tumour cell line growth inhibition, 48 h.
In turn, `O=C(/C=C/c1ccccc1)CCN1CCN(CCC(=O)/C=C/c2ccccc2)CC1` showed a TGI of 30.5 µM.
In turn, `O=c1cc(NNc2ccccc2)[nH]c(=S)[nH]1` gave a TGI greater than 100 µM.
Still for that read-out and setting: as for `CC(=O)NC(CS/N=N/c1nc[nH]c1C(N)=O)C(=O)O` (stereo not given), the figure is greater than 100 µM.
Still for that read-out and setting: as for `CSc1ncc2c(C#N)c3sc4ccccc4n3c(=O)c2n1`, the figure is greater than 100 µM.

Another experiment has as its system MDA-MB-435. Kind of experiment: NCI tumour cell line growth inhibition, 48 h.
`O=C(/C=C/c1ccccc1)CCN1CCN(CCC(=O)/C=C/c2ccccc2)CC1` gave a TGI of 14.8 µM.
With `O=c1cc(NNc2ccccc2)[nH]c(=S)[nH]1`, the TGI was greater than 100 µM.
In the case of `CC(=O)NC(CS/N=N/c1nc[nH]c1C(N)=O)C(=O)O` (stereo not given), the TGI is greater than 100 µM.
The same measure, in the same setting: in the case of `CSc1ncc2c(C#N)c3sc4ccccc4n3c(=O)c2n1` it was greater than 100 µM.

Another experiment deals with SF-295 CNS. Kind of experiment: NCI tumour cell line growth inhibition, 48 h.
`O=C(/C=C/c1ccccc1)CCN1CCN(CCC(=O)/C=C/c2ccccc2)CC1` showed a TGI of 31.2 µM.
Still for that read-out and setting: as for `O=c1cc(NNc2ccccc2)[nH]c(=S)[nH]1`, the figure is greater than 100 µM; as for `CC(=O)NC(CS/N=N/c1nc[nH]c1C(N)=O)C(=O)O` (stereo not given), greater than 100 µM; as for `CSc1ncc2c(C#N)c3sc4ccccc4n3c(=O)c2n1`, greater than 100 µM.

Another experiment deals with RPMI-8226 leukemia. Kind of experiment: NCI tumour cell line growth inhibition, 48 h.
`O=C(/C=C/c1ccccc1)CCN1CCN(CCC(=O)/C=C/c2ccccc2)CC1`: the TGI is greater than 100 µM.
The molecule `O=c1cc(NNc2ccccc2)[nH]c(=S)[nH]1` registered a TGI of 58.6 µM.
In turn, `CC(=O)NC(CS/N=N/c1nc[nH]c1C(N)=O)C(=O)O` (stereo not given) returned a TGI greater than 31.6 µM.
In the case of `CSc1ncc2c(C#N)c3sc4ccccc4n3c(=O)c2n1`, the TGI is greater than 100 µM.

For the next experiment, the system named is EKVX NSCLC. Kind of experiment: NCI tumour cell line growth inhibition, 48 h.
Molecule `O=C(/C=C/c1ccccc1)CCN1CCN(CCC(=O)/C=C/c2ccccc2)CC1` returned a TGI of 35.2 µM.
The molecule `O=c1cc(NNc2ccccc2)[nH]c(=S)[nH]1` had a TGI greater than 100 µM.
The same measure, in the same setting: in the case of `CC(=O)NC(CS/N=N/c1nc[nH]c1C(N)=O)C(=O)O` (stereo not given) it was greater than 100 µM; in that of `CSc1ncc2c(C#N)c3sc4ccccc4n3c(=O)c2n1`, greater than 100 µM.

In the next experiment the test system is MALME-3M melanoma. Kind of experiment: NCI tumour cell line growth inhibition, 48 h.
For the molecule `O=C(/C=C/c1ccccc1)CCN1CCN(CCC(=O)/C=C/c2ccccc2)CC1`, the TGI came to 30.9 µM.
In turn, `O=c1cc(NNc2ccccc2)[nH]c(=S)[nH]1` showed a TGI greater than 100 µM.
`CC(=O)NC(CS/N=N/c1nc[nH]c1C(N)=O)C(=O)O` (stereo not given) returned a TGI greater than 29.3 µM.
In the case of `CSc1ncc2c(C#N)c3sc4ccccc4n3c(=O)c2n1`, the TGI is greater than 100 µM.

A further experiment concerns MOLT-4 leukemia. Kind of experiment: NCI tumour cell line growth inhibition, 48 h.
In turn, `O=C(/C=C/c1ccccc1)CCN1CCN(CCC(=O)/C=C/c2ccccc2)CC1` showed a TGI of 85.5 µM.
In the case of `O=c1cc(NNc2ccccc2)[nH]c(=S)[nH]1`, the TGI worked out at 91.7 µM.
Turning to `CC(=O)NC(CS/N=N/c1nc[nH]c1C(N)=O)C(=O)O` (stereo not given), the TGI was greater than 36.1 µM.
As to `CSc1ncc2c(C#N)c3sc4ccccc4n3c(=O)c2n1`, the TGI is greater than 100 µM.

In a further experiment the test system is 786-0 renal. Kind of experiment: NCI tumour cell line growth inhibition, 48 h.
Molecule `O=C(/C=C/c1ccccc1)CCN1CCN(CCC(=O)/C=C/c2ccccc2)CC1` registered a TGI of 18.9 µM.
In the case of `O=c1cc(NNc2ccccc2)[nH]c(=S)[nH]1`, the TGI is greater than 100 µM.
`CC(=O)NC(CS/N=N/c1nc[nH]c1C(N)=O)C(=O)O` (stereo not given) gave a TGI greater than 100 µM.
The same measure, in the same setting: as for `CSc1ncc2c(C#N)c3sc4ccccc4n3c(=O)c2n1`, the figure is greater than 100 µM.

Another experiment has as its system NCI/ADR-RES ovarian. Kind of experiment: NCI tumour cell line growth inhibition, 48 h.
`O=C(/C=C/c1ccccc1)CCN1CCN(CCC(=O)/C=C/c2ccccc2)CC1`: the TGI was 60.7 µM.
`O=c1cc(NNc2ccccc2)[nH]c(=S)[nH]1`: the TGI is greater than 100 µM.
The molecule `CC(=O)NC(CS/N=N/c1nc[nH]c1C(N)=O)C(=O)O` (stereo not given) yielded a TGI greater than 100 µM.
Consider `CSc1ncc2c(C#N)c3sc4ccccc4n3c(=O)c2n1`, for which the TGI is greater than 100 µM.

Another experiment has as its system SF-539 CNS. Kind of experiment: NCI tumour cell line growth inhibition, 48 h.
With `O=C(/C=C/c1ccccc1)CCN1CCN(CCC(=O)/C=C/c2ccccc2)CC1`, the TGI amounted to 28.8 µM.
Molecule `O=c1cc(NNc2ccccc2)[nH]c(=S)[nH]1` registered a TGI greater than 100 µM.
For `CC(=O)NC(CS/N=N/c1nc[nH]c1C(N)=O)C(=O)O` (stereo not given), the TGI is greater than 100 µM.
Molecule `CSc1ncc2c(C#N)c3sc4ccccc4n3c(=O)c2n1` returned a TGI greater than 100 µM.

In another experiment the test system is HCT-116 colon. Kind of experiment: NCI tumour cell line growth inhibition, 48 h.
For `O=C(/C=C/c1ccccc1)CCN1CCN(CCC(=O)/C=C/c2ccccc2)CC1`, the TGI was 5.28 µM.
`O=c1cc(NNc2ccccc2)[nH]c(=S)[nH]1` registered a TGI of 53.9 µM.
In turn, `CC(=O)NC(CS/N=N/c1nc[nH]c1C(N)=O)C(=O)O` (stereo not given) came in with a TGI greater than 100 µM.
The molecule `CSc1ncc2c(C#N)c3sc4ccccc4n3c(=O)c2n1` came in with a TGI greater than 100 µM.

The next experiment concerns SF-268 CNS. Kind of experiment: NCI tumour cell line growth inhibition, 48 h.
For the molecule `O=C(/C=C/c1ccccc1)CCN1CCN(CCC(=O)/C=C/c2ccccc2)CC1`, the TGI was found to be 29.2 µM.
Same read-out and setting: as for `O=c1cc(NNc2ccccc2)[nH]c(=S)[nH]1`, the figure is greater than 100 µM.
In the case of `CC(=O)NC(CS/N=N/c1nc[nH]c1C(N)=O)C(=O)O` (stereo not given), the TGI was greater than 100 µM.
Molecule `CSc1ncc2c(C#N)c3sc4ccccc4n3c(=O)c2n1` showed a TGI of 52.9 µM.

The subject of another experiment is OVCAR-8 ovarian. Kind of experiment: NCI tumour cell line growth inhibition, 48 h.
Take `O=C(/C=C/c1ccccc1)CCN1CCN(CCC(=O)/C=C/c2ccccc2)CC1`: the TGI worked out at 31.4 µM.
The same measure, in the same setting: in the case of `O=c1cc(NNc2ccccc2)[nH]c(=S)[nH]1` it was greater than 100 µM; in that of `CC(=O)NC(CS/N=N/c1nc[nH]c1C(N)=O)C(=O)O` (stereo not given), greater than 100 µM; in that of `CSc1ncc2c(C#N)c3sc4ccccc4n3c(=O)c2n1`, greater than 100 µM.

The subject of another experiment is HS 578T breast. Kind of experiment: NCI tumour cell line growth inhibition, 48 h.
In turn, `O=C(/C=C/c1ccccc1)CCN1CCN(CCC(=O)/C=C/c2ccccc2)CC1` displayed a TGI of 37.2 µM.
In the case of `O=c1cc(NNc2ccccc2)[nH]c(=S)[nH]1`, the TGI was greater than 100 µM.
The molecule `CC(=O)NC(CS/N=N/c1nc[nH]c1C(N)=O)C(=O)O` (stereo not given) showed a TGI greater than 100 µM.
`CSc1ncc2c(C#N)c3sc4ccccc4n3c(=O)c2n1` returned a TGI of 51.3 µM.

A further experiment concerns SNB-75 CNS. Kind of experiment: NCI tumour cell line growth inhibition, 48 h.
`O=C(/C=C/c1ccccc1)CCN1CCN(CCC(=O)/C=C/c2ccccc2)CC1` showed a TGI of 29.7 µM.
Same read-out and setting: in the case of `O=c1cc(NNc2ccccc2)[nH]c(=S)[nH]1` it was greater than 100 µM.
The same measure, in the same setting: as for `CC(=O)NC(CS/N=N/c1nc[nH]c1C(N)=O)C(=O)O` (stereo not given), the figure is greater than 100 µM; as for `CSc1ncc2c(C#N)c3sc4ccccc4n3c(=O)c2n1`, greater than 100 µM.

In a further experiment the test system is UACC-62 melanoma. Kind of experiment: NCI tumour cell line growth inhibition, 48 h.
`O=C(/C=C/c1ccccc1)CCN1CCN(CCC(=O)/C=C/c2ccccc2)CC1` registered a TGI of 30.2 µM.
`O=c1cc(NNc2ccccc2)[nH]c(=S)[nH]1` displayed a TGI greater than 100 µM.
Molecule `CC(=O)NC(CS/N=N/c1nc[nH]c1C(N)=O)C(=O)O` (stereo not given) gave a TGI greater than 100 µM.
The molecule `CSc1ncc2c(C#N)c3sc4ccccc4n3c(=O)c2n1` registered a TGI greater than 100 µM.

The next experiment relates to UACC-257 melanoma. Kind of experiment: NCI tumour cell line growth inhibition, 48 h.
`O=C(/C=C/c1ccccc1)CCN1CCN(CCC(=O)/C=C/c2ccccc2)CC1` yielded a TGI of 24 µM.
Molecule `O=c1cc(NNc2ccccc2)[nH]c(=S)[nH]1` gave a TGI greater than 100 µM.
As for `CC(=O)NC(CS/N=N/c1nc[nH]c1C(N)=O)C(=O)O` (stereo not given), the TGI was greater than 100 µM.
`CSc1ncc2c(C#N)c3sc4ccccc4n3c(=O)c2n1` gave a TGI greater than 100 µM.

The subject of another experiment is TK-10 renal. Kind of experiment: NCI tumour cell line growth inhibition, 48 h.
Regarding `O=C(/C=C/c1ccccc1)CCN1CCN(CCC(=O)/C=C/c2ccccc2)CC1`, the TGI was 30 µM.
In turn, `O=c1cc(NNc2ccccc2)[nH]c(=S)[nH]1` returned a TGI of 90.6 µM.
The molecule `CC(=O)NC(CS/N=N/c1nc[nH]c1C(N)=O)C(=O)O` (stereo not given) had a TGI greater than 100 µM.
In turn, `CSc1ncc2c(C#N)c3sc4ccccc4n3c(=O)c2n1` gave a TGI greater than 100 µM.

The subject of the next experiment is NCI-H460 lung. Kind of experiment: NCI tumour cell line growth inhibition, 48 h.
As for `O=C(/C=C/c1ccccc1)CCN1CCN(CCC(=O)/C=C/c2ccccc2)CC1`, the TGI was found to be 31 µM.
The molecule `O=c1cc(NNc2ccccc2)[nH]c(=S)[nH]1` returned a TGI greater than 100 µM.
Molecule `CC(=O)NC(CS/N=N/c1nc[nH]c1C(N)=O)C(=O)O` (stereo not given) displayed a TGI greater than 100 µM.
Molecule `CSc1ncc2c(C#N)c3sc4ccccc4n3c(=O)c2n1` showed a TGI greater than 100 µM.

For a further experiment, the system named is A498 renal. Kind of experiment: NCI tumour cell line growth inhibition, 48 h.
`O=C(/C=C/c1ccccc1)CCN1CCN(CCC(=O)/C=C/c2ccccc2)CC1` displayed a TGI of 33.3 µM.
`O=c1cc(NNc2ccccc2)[nH]c(=S)[nH]1` registered a TGI greater than 100 µM.
Turning to `CC(=O)NC(CS/N=N/c1nc[nH]c1C(N)=O)C(=O)O` (stereo not given), the TGI is greater than 100 µM.
In turn, `CSc1ncc2c(C#N)c3sc4ccccc4n3c(=O)c2n1` showed a TGI greater than 100 µM.
